Data as given in US11066396B2 (priority 2016, dated 2021).

Target: HDAC1 (Homo sapiens (Human), UniProt Q13547)
Settings: read-out: HDAC1 IC50

Chain of HDAC1 (Q13547 whole entry): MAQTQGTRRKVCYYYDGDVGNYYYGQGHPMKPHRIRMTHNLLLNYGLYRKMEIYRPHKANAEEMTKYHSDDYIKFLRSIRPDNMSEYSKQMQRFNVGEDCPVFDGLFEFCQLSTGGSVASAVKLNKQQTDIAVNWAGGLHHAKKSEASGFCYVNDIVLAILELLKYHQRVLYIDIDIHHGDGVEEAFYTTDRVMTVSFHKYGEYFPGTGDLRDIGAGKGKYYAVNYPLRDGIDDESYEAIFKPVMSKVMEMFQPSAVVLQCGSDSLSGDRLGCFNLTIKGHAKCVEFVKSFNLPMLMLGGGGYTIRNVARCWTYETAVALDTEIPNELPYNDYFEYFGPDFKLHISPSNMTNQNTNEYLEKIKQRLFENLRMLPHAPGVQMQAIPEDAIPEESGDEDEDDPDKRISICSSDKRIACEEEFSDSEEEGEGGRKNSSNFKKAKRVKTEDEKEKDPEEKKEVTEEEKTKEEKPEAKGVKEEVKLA

SMILES	IC50
O=C1Nc2ccc(F)cc2C1Cc1ccc(-c2noc(C(F)(F)F)n2)cc1 (racemic) [Example 193, 5-fluoro-3-{4-[5-(trifluoromethyl)-1,2,4-oxadiazol-3-yl]benzyl}-1,3-dihydro-2H-indol-2-one]	710 nM
O=C1CCC(c2ccc(-c3noc(C(F)(F)F)n3)cc2)N1c1cccc(F)c1 (racemic) [Example 325, 1-(3-fluorophenyl)-5-{4-[5-(trifluoromethyl)-1,2,4-oxadiazol-3-yl]phenyl}pyrrolidin-2-one]	2500 nM
Cc1ccc2c3c(nn2c1)CCC(NCc1ccc(-c2noc(C(F)(F)F)n2)cc1)C3 (racemic) [Example 352, 8-methyl-N-({4-[5-(trifluoromethyl)-1,2,4-oxadiazol-3-yl]phenyl}methyl)-1,2,3,4-tetrahydropyrido[1,2-b]indazol-2-amine]	44 nM
Cc1ccc2c3c(nn2c1)CCC(NCc1ccc(-c2noc(C(F)(F)F)n2)cc1)C3 (racemic) [Example 355, 8-methyl-N-({4-[5-(trifluoromethyl)-1,2,4-oxadiazol-3-yl]phenyl}methyl)-1,2,3,4-tetrahydropyrido[1,2-b]indazol-2-amine]	48 nM
Cc1noc([C@H]2CCCCN2c2ccc(-c3noc(C(F)(F)F)n3)c(Cl)c2)n1 [Example 18, (R)-3-(2-Chloro-4-(2-(3-methyl-1,2,4-oxadiazol-5-yl)piperidin-1-yl)phenyl)-5-(trifluoromethyl)-1,2,4-oxadiazole]	> 15000 nM
O=C(NCc1ccc(-c2noc(C(F)(F)F)n2)cc1)c1cc(N2CCOCC2)ccn1 [Example 204, 4-morpholin-4-yl-N-{4-[5-(trifluoromethyl)-1,2,4-oxadiazol-3-yl]benzyl}pyridine-2-carboxamide]	1000 nM
O=C(NCc1ccc(-c2noc(C(F)(F)F)n2)cc1)c1cccc(O)c1 [Example 205, 3-hydroxy-N-{4-[5-(trifluoromethyl)-1,2,4-oxadiazol-3-yl]benzyl}benzamide]	720 nM
CCn1cc(COc2cc(-c3noc(C(F)(F)F)n3)ccn2)c(C)n1 [Example 206, 2-[(1-ethyl-3-methyl-1H-pyrazol-4-yl)methoxy]-4-[5-(trifluoromethyl)-1,2,4-oxadiazol-3-yl]pyridine]	4200 nM
FC(F)(F)c1nc(-c2ccnc(OCc3c(Cl)nc4sccn34)c2)no1 [Example 208, 6-chloro-5-[({4-[5-(trifluoromethyl)-1,2,4-oxadiazol-3-yl]pyridin-2-yl}oxy)methyl]imidazo[2,1-b][1,3]thiazole]	3100 nM
FC(F)(F)c1nc(-c2ccnc(OCc3cc4n(n3)CCCO4)c2)no1 [Example 210, 2-[({4-[5-(trifluoromethyl)-1,2,4-oxadiazol-3-yl]pyridin-2-yl}oxy)methyl]-6,7-dihydro-5H-pyrazolo[5,1-b][1,3]oxazine]	1200 nM
Cc1cc(C)nc(COc2cc(-c3noc(C(F)(F)F)n3)ccn2)c1 [Example 211, 2,4-dimethyl-6-[({4-[5-(trifluoromethyl)-1,2,4-oxadiazol-3-yl]pyridin-2-yl}oxy)methyl]pyridine]	2500 nM
FC(F)(F)c1nc(-c2ccnc(OCc3ccnn3-c3cccnc3)c2)no1 [Example 212, 2-[(1-pyridin-3-yl-1H-pyrazol-5-yl)methoxy]-4-[5-(trifluoromethyl)-1,2,4-oxadiazol-3-yl]pyridine]	1900 nM
Cc1cnc(COc2cc(-c3noc(C(F)(F)F)n3)ccn2)cn1 [Example 213, 2-methyl-5-[({4-[5-(trifluoromethyl)-1,2,4-oxadiazol-3-yl]pyridin-2-yl}oxy)methyl]pyrazine]	1900 nM
FC(F)(F)c1nc(-c2ccnc(OCc3cnc(Cl)cn3)c2)no1 [Example 214, 2-chloro-5-[({4-[5-(trifluoromethyl)-1,2,4-oxadiazol-3-yl]pyridin-2-yl}oxy)methyl]pyrazine]	1400 nM
FC(F)(F)c1nc(-c2ccnc(OCc3cncc(Cl)n3)c2)no1 [Example 215, 2-chloro-6-[({4-[5-(trifluoromethyl)-1,2,4-oxadiazol-3-yl]pyridin-2-yl}oxy)methyl]pyrazine]	1200 nM
FC(F)(F)c1nc(-c2ccnc(OCc3cncc(N4CCNCC4)n3)c2)no1 [Example 216, 2-piperazin-1-yl-6-[({4-[5-(trifluoromethyl)-1,2,4-oxadiazol-3-yl]pyridin-2-yl}oxy)methyl]pyrazine]	1100 nM
FC(F)(F)c1nc(-c2ccnc(OCc3ncccc3Cl)c2)no1 [Example 217, 3-chloro-2-[({4-[5-(trifluoromethyl)-1,2,4-oxadiazol-3-yl]pyridin-2-yl}oxy)methyl]pyridine]	3800 nM
FC(F)Cn1nc(COc2cc(-c3noc(C(F)(F)F)n3)ccn2)cc1C1CC1 [Example 218, 2-{[5-cyclopropyl-1-(2,2-difluoroethyl)-1H-pyrazol-3-yl]methoxy}-4-[5-(trifluoromethyl)-1,2,4-oxadiazol-3-yl]pyridine]	870 nM
FC(F)(F)Cn1nc(COc2cc(-c3noc(C(F)(F)F)n3)ccn2)cc1C1CC1 [Example 219, 2-{[5-cyclopropyl-1-(2,2,2-trifluoroethyl)-1H-pyrazol-3-yl]methoxy}-4-[5-(trifluoromethyl)-1,2,4-oxadiazol-3-yl]pyridine]	920 nM

SMILES	IC50
Cc1cc(COc2cc(-c3noc(C(F)(F)F)n3)ccn2)nn1CC(F)F [Example 220, 2-{[1-(2,2-difluoroethyl)-5-methyl-1H-pyrazol-3-yl]methoxy}-4-[5-(trifluoromethyl)-1,2,4-oxadiazol-3-yl]pyridine]	1200 nM
FC(F)(F)c1nc(-c2ccnc(OCc3ccn(C4CC4)n3)c2)no1 [Example 222, 2-[(1-cyclopropyl-1H-pyrazol-3-yl)methoxy]-4-[5-(trifluoromethyl)-1,2,4-oxadiazol-3-yl]pyridine]	3500 nM
CC(C)n1ccc(COc2cc(-c3noc(C(F)(F)F)n3)ccn2)n1 [Example 223, 2-{[1-(1-methylethyl)-1H-pyrazol-3-yl]methoxy}-4-[5-(trifluoromethyl)-1,2,4-oxadiazol-3-yl]pyridine]	2400 nM
Cn1nc(COc2cc(-c3noc(C(F)(F)F)n3)ccn2)cc1C(C)(C)C [Example 224, 2-[(5-tert-butyl-1-methyl-1H-pyrazol-3-yl)methoxy]-4-[5-(trifluoromethyl)-1,2,4-oxadiazol-3-yl]pyridine]	1200 nM
O=C1CCc2ccc(Br)cc2N1Cc1ccc(-c2noc(C(F)(F)F)n2)cc1 [Example 319, 7-bromo-1-{4-[5-(trifluoromethyl)-1,2,4-oxadiazol-3-yl]benzyl}-3,4-dihydroquinolin-2(1H)-one]	180 nM
O=c1ccc2ccc(F)cc2n1Cc1ccc(-c2noc(C(F)(F)F)n2)cc1 [Example 322, 7-fluoro-1-{4-[5-(trifluoromethyl)-1,2,4-oxadiazol-3-yl]benzyl}quinolin-2(1H)-one]	260 nM
O=C1CCc2ccc(F)cc2N1Cc1ccc(-c2noc(C(F)(F)F)n2)cn1 [Example 323, 7-fluoro-1-({5-[5-(trifluoromethyl)-1,2,4-oxadiazol-3-yl]pyridin-2-yl}methyl)-3,4-dihydroquinolin-2(1H)-one]	53 nM
O=C1CCc2ccccc2N1Cc1ccc(-c2noc(C(F)(F)F)n2)cn1 [Example 324, 1-({5-[5-(trifluoromethyl)-1,2,4-oxadiazol-3-yl]pyridin-2-yl}methyl)-3,4-dihydroquinolin-2(1H)-one]	150 nM
O=C1c2cc(F)ccc2CCN1Cc1ccc(-c2noc(C(F)(F)F)n2)cn1 [Example 327, 7-fluoro-2-({5-[5-(trifluoromethyl)-1,2,4-oxadiazol-3-yl]pyridin-2-yl}methyl)-3,4-dihydroisoquinolin-1(2H)-one]	640 nM
O=C1CCc2ncccc2N1Cc1ccc(-c2noc(C(F)(F)F)n2)cn1 [Example 328, 1-({5-[5-(trifluoromethyl)-1,2,4-oxadiazol-3-yl]pyridin-2-yl}methyl)-3,4-dihydro-1,5-naphthyridin-2(1H)-one]	580 nM
Fc1ccc2c(c1)N(Cc1ccc(-c3noc(C(F)(F)F)n3)cn1)CCO2 [Example 347, 6-fluoro-4-({5-[5-(trifluoromethyl)-1,2,4-oxadiazol-3-yl]pyridin-2-yl}methyl)-3,4-dihydro-2H-1,4-benzoxazine]	600 nM
CC1(Cc2ccc(-c3noc(C(F)(F)F)n3)cc2)C(=O)Nc2ccc(F)cc21 (stereo not shown) [Example 348, 5-fluoro-3-methyl-3-{4-[5-(trifluoromethyl)-1,2,4-oxadiazol-3-yl]benzyl}-1,3-dihydro-2H-indol-2-one]	2400 nM
FC(F)(F)c1nc(-c2ccc(CNc3cccc(-c4cnco4)c3)nc2)no1 [Example 360, 3-(1,3-oxazol-5-yl)-N-({5-[5-(trifluoromethyl)-1,2,4-oxadiazol-3-yl]pyridin-2-yl}methyl)aniline]	7.6 nM
FC(F)(F)c1nc(-c2ccc(CNc3cccc(-n4cncn4)c3)nc2)no1 [Example 364, 3-(1H-1,2,4-triazol-1-yl)-N-({5-[5-(trifluoromethyl)-1,2,4-oxadiazol-3-yl]pyridin-2-yl}methyl)aniline]	60 nM
NC(=O)c1cccc(CCOc2cc(-c3noc(C(F)(F)F)n3)ccn2)c1 [Example 459, 3-[2-({4-[5-(trifluoromethyl)-1,2,4-oxadiazol-3-yl]pyridin-2-yl}oxy)ethyl]benzamide]	1800 nM
O=c1ccc2ccccc2n1Cc1ccc(-c2noc(C(F)(F)F)n2)cn1 [Example 460, 1-({5-[5-(trifluoromethyl)-1,2,4-oxadiazol-3-yl]pyridin-2-yl}methyl)quinolin-2(1H)-one]	99 nM
O=C1CSc2ccccc2N1Cc1ccc(-c2noc(C(F)(F)F)n2)cn1 [Example 463, 4-({5-[5-(trifluoromethyl)-1,2,4-oxadiazol-3-yl]pyridin-2-yl}methyl)-2H-1,4-benzothiazin-3(4H)-one]	130 nM
O=C1CCc2cc(C(F)(F)F)ccc2N1Cc1ccc(-c2noc(C(F)(F)F)n2)cn1 [Example 464, 6-(trifluoromethyl)-1-({5-[5-(trifluoromethyl)-1,2,4-oxadiazol-3-yl]pyridin-2-yl}methyl)-3,4-dihydroquinolin-2(1H)-one]	300 nM
